In the NIST ThermoML archive (doi:10.1016/j.jct.2010.06.008):

Assay: xn = mol fraction of the nth substance listed
Conditions: 101 kPa, Liquid; for mass density: Vibrating tube method; for speed of sound: Sing-around technique in a fixed-path interferometer

CCC(C)Cl (centres undefined) [2-chlorobutane] + CCCCCCC
mass density [kg/m3]
Conditions | 283.15 K | 298.15 K | 313.15 K
x2 = 0 | 884.34 | 867.474 | 850.266
x2 = 0.0506 | 870.755 | 854.132 | 837.236
x2 = 0.0989 | 858.319 | 841.994 | 825.335
x2 = 0.2012 | 833.412 | 817.61 | 801.474
x2 = 0.3016 | 810.786 | 795.463 | 779.843
x2 = 0.3997 | 790.254 | 775.401 | 760.214
x2 = 0.4984 | 771.15 | 756.698 | 741.962
x2 = 0.5994 | 752.976 | 738.95 | 724.63
x2 = 0.6994 | 736.272 | 722.581 | 708.679
x2 = 0.7996 | 720.631 | 707.328 | 693.773
x2 = 0.9006 | 705.927 | 692.97 | 679.768
x2 = 0.9503 | 699.08 | 686.282 | 673.245

CCCCCCC [heptane] + CC(C)(C)Cl
x1 = 1
Conditions | mass density [kg/m3] | speed of sound [m/s]
283.15 K | 692.422 | 1195.7
298.15 K | 679.783 | 1131
313.15 K | 666.908 | 1067.2

CCCCCCC [heptane] + CC(C)CCl
x1 = 1
Conditions | mass density [kg/m3] | speed of sound [m/s]
283.15 K | 692.422 | 1195.7
298.15 K | 679.783 | 1131
313.15 K | 666.908 | 1067.2

CCCCCCC [heptane] + CCC(C)Cl
Conditions | mass density, 283.15 K [kg/m3] | mass density, 298.15 K [kg/m3] | mass density, 313.15 K [kg/m3] | speed of sound, 313.15 K [m/s]
x1 = 1 | 692.422 | 679.783 | 666.908 | –
x2 = 0 | – | – | – | 1005.3

CCCCCCC [heptane] + CCCCCl
x1 = 1
Conditions | mass density [kg/m3]
283.15 K | 692.422
298.15 K | 679.783
313.15 K | 666.908

CCCCCC [hexane] + CC(C)(C)Cl
x1 = 1
Conditions | mass density [kg/m3] | speed of sound [m/s]
283.15 K | 668.609 | 1145.1
298.15 K | 654.96 | 1077
313.15 K | 641.39 | 1009.9

CCCCCC [hexane] + CC(C)CCl
x1 = 1
Conditions | mass density [kg/m3] | speed of sound [m/s]
283.15 K | 668.609 | 1145.1
298.15 K | 654.96 | 1077
313.15 K | 641.39 | 1009.9

CCCCCC [hexane] + CCC(C)Cl
x1 = 1
Conditions | mass density [kg/m3] | speed of sound [m/s]
283.15 K | 668.609 | 1145.1
298.15 K | 654.96 | 1077
313.15 K | 641.39 | 1009.9

CCCCCC [hexane] + CCCCCl
x1 = 1
Conditions | mass density [kg/m3] | speed of sound [m/s]
283.15 K | 668.609 | 1145.1
298.15 K | 654.96 | 1077
313.15 K | 641.39 | 1009.9
